Laboratory results published in ChEMBL document CHEMBL1629559, “Real-time PCR detection of gyrA and parC mutations in Streptococcus pneumoniae” (2008).
Converted amounts (≈) assume the structure as drawn.

Assays:
Streptococcus pneumoniae [1] = assay: Antibacterial activity against Streptococcus pneumoniae R6 Tr1 harboring parC Ser79Tyr mutant gene by agar disk diffusion method; assay type: functional
Streptococcus pneumoniae [2] = assay: Antibacterial activity against Streptococcus pneumoniae R6 Tr6 harboring gyrA Ser81Phe mutant gene by agar disk diffusion method; assay type: functional
Streptococcus pneumoniae [3] = assay: Antibacterial activity against Streptococcus pneumoniae CP1000 by agar disk diffusion method; assay type: functional
Streptococcus pneumoniae [4] = assay: Antibacterial activity against Streptococcus pneumoniae U2A1060 harboring gyrA Ser81Phe parC Asp83His mutant gene by agar disk diffusion method; assay type: functional
Streptococcus pneumoniae [5] = assay: Antibacterial activity against Streptococcus pneumoniae R6 by agar disk diffusion method; assay type: functional
Streptococcus pneumoniae [6] = assay: Antibacterial activity against Streptococcus pneumoniae U2A1686 harboring gyrA Glu85Lys mutant gene by agar disk diffusion method; assay type: functional
Streptococcus pneumoniae [7] = assay: Antibacterial activity against Streptococcus pneumoniae U2A1413 harboring parC Ser79Tyr mutant gene by agar disk diffusion method; assay type: functional
Streptococcus pneumoniae [8] = assay: Antibacterial activity against Streptococcus pneumoniae R6 Tr10 harboring gyrA Ser81Tyr parC Ser79Tyr mutant gene by agar disk diffusion method; assay type: functional
Streptococcus pneumoniae [9] = assay: Antibacterial activity against Streptococcus pneumoniae U2A1266 harboring gyrA Ser81Cys mutant gene by agar disk diffusion method; assay type: functional
Streptococcus pneumoniae [10] = assay: Antibacterial activity against Streptococcus pneumoniae U2A1693 harboring parC Asp83Asn mutant gene by agar disk diffusion method; assay type: functional
Streptococcus pneumoniae [11] = assay: Antibacterial activity against Streptococcus pneumoniae H548 clinical isolate harboring gyrA Ser81Phe mutant gene by agar disk diffusion method; assay type: functional
Streptococcus pneumoniae [12] = assay: Antibacterial activity against Streptococcus pneumoniae U2A1414 harboring gyrA Glu85Lys parC Ser79Phe mutant gene by agar disk diffusion method; assay type: functional
Streptococcus pneumoniae [13] = assay: Antibacterial activity against Streptococcus pneumoniae U2A1681 harboring parC Ser79Tyr Asp83Ala mutant gene by agar disk diffusion method; assay type: functional
Streptococcus pneumoniae [14] = assay: Antibacterial activity against Streptococcus pneumoniae CIP104485 by agar disk diffusion method; assay type: functional, CIP1044
Streptococcus pneumoniae [15] = assay: Antibacterial activity against Streptococcus pneumoniae U2A1411 harboring parC Asp83Gly mutant gene by agar disk diffusion method; assay type: functional
Streptococcus pneumoniae [16] = assay: Antibacterial activity against Streptococcus pneumoniae U2A1056 harboring gyrA Ser81Tyr parC Asp83His mutant gene by agar disk diffusion method; assay type: functional
Streptococcus pneumoniae [17] = assay: Antibacterial activity against Streptococcus pneumoniae U2A1050 harboring gyrA Ser81Phe mutant gene by agar disk diffusion method; assay type: functional
Streptococcus pneumoniae [18] = assay: Antibacterial activity against Streptococcus pneumoniae U2A1051 harboring gyrA Ser81Tyr mutant gene by agar disk diffusion method; assay type: functional
Streptococcus pneumoniae [19] = assay: Antibacterial activity against Streptococcus pneumoniae U2A1053 harboring parC Ser79Phe mutant gene by agar disk diffusion method; assay type: functional
Streptococcus pneumoniae [20] = assay: Antibacterial activity against Streptococcus pneumoniae U2A1050 harboring gyrA Ser81Phe mutant gene by agar dilution method; assay type: functional
Streptococcus pneumoniae [21] = assay: Antibacterial activity against Streptococcus pneumoniae U2A1693 harboring parC Asp83Asn mutant gene by agar dilution method; assay type: functional
Streptococcus pneumoniae [22] = assay: Antibacterial activity against Streptococcus pneumoniae U2A1060 harboring gyrA Ser81Phe parC Asp83His mutant gene by agar dilution method; assay type: functional
Streptococcus pneumoniae [23] = assay: Antibacterial activity against Streptococcus pneumoniae U2A1681 harboring parC Ser79Tyr Asp83Ala mutant gene by agar dilution method; assay type: functional
Streptococcus pneumoniae [24] = assay: Antibacterial activity against Streptococcus pneumoniae U2A1413 harboring parC Ser79Tyr mutant gene by agar dilution method; assay type: functional
Streptococcus pneumoniae [25] = assay: Antibacterial activity against Streptococcus pneumoniae CP1000 by agar dilution method; assay type: functional
Streptococcus pneumoniae [26] = assay: Antibacterial activity against Streptococcus pneumoniae U2A1053 harboring parC Ser79Phe mutant gene by agar dilution method; assay type: functional
Streptococcus pneumoniae [27] = assay: Antibacterial activity against Streptococcus pneumoniae U2A1411 harboring parC Asp83Gly mutant gene by agar dilution method; assay type: functional
Streptococcus pneumoniae [28] = assay: Antibacterial activity against Streptococcus pneumoniae U2A1266 harboring gyrA Ser81Cys mutant gene by agar dilution method; assay type: functional
Streptococcus pneumoniae [29] = assay: Antibacterial activity against Streptococcus pneumoniae R6 Tr10 harboring gyrA Ser81Tyr parC Ser79Tyr mutant gene by agar dilution method; assay type: functional
Streptococcus pneumoniae [30] = assay: Antibacterial activity against Streptococcus pneumoniae R6 Tr1 harboring parC Ser79Tyr mutant gene by agar dilution method; assay type: functional
Streptococcus pneumoniae [31] = assay: Antibacterial activity against Streptococcus pneumoniae U2A1051 harboring gyrA Ser81Tyr mutant gene by agar dilution method; assay type: functional
Streptococcus pneumoniae [32] = assay: Antibacterial activity against Streptococcus pneumoniae R6 by agar dilution method; assay type: functional
Streptococcus pneumoniae [33] = assay: Antibacterial activity against Streptococcus pneumoniae U2A1686 harboring gyrA Glu85Lys mutant gene by agar dilution method; assay type: functional
Streptococcus pneumoniae [34] = assay: Antibacterial activity against Streptococcus pneumoniae U2A1414 harboring gyrA Glu85Lys parC Ser79Phe mutant gene by agar dilution method; assay type: functional
Streptococcus pneumoniae [35] = assay: Antibacterial activity against Streptococcus pneumoniae R6 Tr6 harboring gyrA Ser81Phe mutant gene by agar dilution method; assay type: functional
Streptococcus pneumoniae [36] = assay: Antibacterial activity against Streptococcus pneumoniae U2A1056 harboring gyrA Ser81Tyr parC Asp83His mutant gene by agar dilution method; assay type: functional
Streptococcus pneumoniae [37] = assay: Antibacterial activity against Streptococcus pneumoniae CIP104485 by agar dilution method; assay type: functional; settings: CIP1044

SMILES | diameter of the inhibition zone (DIZ) (Streptococcus pneumoniae [1]) | diameter of the inhibition zone (DIZ) (Streptococcus pneumoniae [2]) | diameter of the inhibition zone (DIZ) (Streptococcus pneumoniae [3]) | diameter of the inhibition zone (DIZ) (Streptococcus pneumoniae [4]) | diameter of the inhibition zone (DIZ) (Streptococcus pneumoniae [5]) | diameter of the inhibition zone (DIZ) (Streptococcus pneumoniae [6]) | diameter of the inhibition zone (DIZ) (Streptococcus pneumoniae [7]) | diameter of the inhibition zone (DIZ) (Streptococcus pneumoniae [8]) | diameter of the inhibition zone (DIZ) (Streptococcus pneumoniae [9]) | diameter of the inhibition zone (DIZ) (Streptococcus pneumoniae [10]) | diameter of the inhibition zone (DIZ) (Streptococcus pneumoniae [11]) | diameter of the inhibition zone (DIZ) (Streptococcus pneumoniae [12]) | diameter of the inhibition zone (DIZ) (Streptococcus pneumoniae [13]) | diameter of the inhibition zone (DIZ) (Streptococcus pneumoniae [14]) | diameter of the inhibition zone (DIZ) (Streptococcus pneumoniae [15]) | diameter of the inhibition zone (DIZ) (Streptococcus pneumoniae [16]) | diameter of the inhibition zone (DIZ) (Streptococcus pneumoniae [17]) | diameter of the inhibition zone (DIZ) (Streptococcus pneumoniae [18]) | diameter of the inhibition zone (DIZ) (Streptococcus pneumoniae [19]) | MIC (Streptococcus pneumoniae [20]) | further results
CCn1cc(C(=O)O)c(=O)c2ccc(C)nc21 [NALIDIXIC ACID] | 6 mm | 6 mm | 6 mm | 14 mm | 6 mm | 6 mm | 6 mm | 6 mm | 6 mm | 6 mm | 6 mm | 6 mm | 6 mm | 6 mm | 6 mm | 6 mm | 6 mm | 8 mm | 13 mm | – | –
CCn1cc(C(=O)O)c(=O)c2cc(F)c(N3CCN(C)CC3)cc21 [PEFLOXACIN] | – | 19 mm | 21 mm | – | 17 mm | 23 mm | 13 mm | – | 17 mm | – | – | – | – | 18 mm | – | – | 18 mm | 20 mm | 13 mm | 16 µg/mL (≈ 48 µM) | MIC (Streptococcus pneumoniae [21]): 64 µg/mL (≈ 192 µM); MIC (Streptococcus pneumoniae [22]): 128 µg/mL (≈ 384 µM); MIC (Streptococcus pneumoniae [23]): > 128 µg/mL; MIC (Streptococcus pneumoniae [24]): 32 µg/mL (≈ 96 µM); MIC (Streptococcus pneumoniae [25]): 4 µg/mL (≈ 12 µM); MIC (Streptococcus pneumoniae [26]): 128 µg/mL (≈ 384 µM); MIC (Streptococcus pneumoniae [27]): 64 µg/mL (≈ 192 µM); MIC (Streptococcus pneumoniae [28]): 16 µg/mL (≈ 48 µM); MIC (Streptococcus pneumoniae [29]): > 128 µg/mL; MIC (Streptococcus pneumoniae [30]): 64 µg/mL (≈ 192 µM); MIC (Streptococcus pneumoniae [31]): 16 µg/mL (≈ 48 µM); MIC (Streptococcus pneumoniae [32]): 8 µg/mL (≈ 24 µM); MIC (Streptococcus pneumoniae [33]): 8 µg/mL (≈ 24 µM); MIC (Streptococcus pneumoniae [34]): > 128 µg/mL; MIC (Streptococcus pneumoniae [35]): 8 µg/mL (≈ 24 µM); MIC (Streptococcus pneumoniae [36]): 64 µg/mL (≈ 192 µM); MIC (Streptococcus pneumoniae [37]): 8 µg/mL (≈ 24 µM)
C[C@@H]1CN(c2c(F)c(N)c3c(=O)c(C(=O)O)cn(C4CC4)c3c2F)C[C@H](C)N1 [SPARFLOXACIN] | 25 mm | 23 mm | 26 mm | 11 mm | 23 mm | 24 mm | 28 mm | 12 mm | 23 mm | 24 mm | 20 mm | 6 mm | 6 mm | 24 mm | 19 mm | 11 mm | 22 mm | 22 mm | 25 mm | 2 µg/mL (≈ 5.1 µM) | MIC (Streptococcus pneumoniae [22]): 16 µg/mL (≈ 40.8 µM); MIC (Streptococcus pneumoniae [23]): 32 µg/mL (≈ 81.5 µM); MIC (Streptococcus pneumoniae [24]): 0.25 µg/mL (≈ 0.637 µM); MIC (Streptococcus pneumoniae [25]): 0.25 µg/mL (≈ 0.637 µM); MIC (Streptococcus pneumoniae [26]): 0.25 µg/mL (≈ 0.637 µM); MIC (Streptococcus pneumoniae [28]): 1 µg/mL (≈ 2.55 µM); MIC (Streptococcus pneumoniae [29]): 16 µg/mL (≈ 40.8 µM); MIC (Streptococcus pneumoniae [30]): 1 µg/mL (≈ 2.55 µM); MIC (Streptococcus pneumoniae [31]): 2 µg/mL (≈ 5.1 µM); MIC (Streptococcus pneumoniae [32]): 0.25 µg/mL (≈ 0.637 µM); MIC (Streptococcus pneumoniae [33]): 2 µg/mL (≈ 5.1 µM); MIC (Streptococcus pneumoniae [34]): > 32 µg/mL; MIC (Streptococcus pneumoniae [35]): 1 µg/mL (≈ 2.55 µM); MIC (Streptococcus pneumoniae [36]): 8 µg/mL (≈ 20.4 µM); MIC (Streptococcus pneumoniae [37]): 0.25 µg/mL (≈ 0.637 µM)
